This passage reports inhibition of growth, pest or weed control and melting point results from US10952436B2, “Microbiocidal quinoline (thio)carboxamide derivatives” (SYNGENTA PARTICIPATIONS AG, priority 2017, dated 2021).

For data set [1], the system named is Botryotinia fuckeliana (Botrytis cinerea). Put plainly: Botryotinia fuckeliana (Botrytis cinerea)/Liquid Culture (Gray Mould). The format is cell-based. The settings on record: 200 ppm, liquid culture, compared to untreated control, 3-4 days after application, read-out: control of Botryotinia fuckeliana.
Data set [2] has as its system Fusarium culmorum. Put plainly: microbe, parasite or virus in culture. In kind it is cell-based. The settings on record: read-out: control of Fusarium culmorum.
The test system of data set [3] is Fusarium culmorum. Put plainly: whole plant or invertebrate. In kind it is in vivo. The settings on record: in Triticum aestivum, read-out: control of Fusarium culmorum.
Data set [4] concerns Glomerella lagenarium (Colletotrichum lagenarium). Put plainly: Glomerella lagenarium (Colletotrichum lagenarium)/Liquid Culture (Anthracnose). In kind it is cell-based. To be noted: Colletotrichum orbiculare; 200 ppm; liquid culture, compared to untreated control, 3-4 days after application; read-out: control of Glomerella lagenarium.
Data set [5] relates to Monographella nivalis (Microdochium nivale). Nature of the data set: Monographella nivalis (Microdochium nivale)/Liquid Culture (Foot Rot Cereals). The format is cell-based. To be noted: 200 ppm, liquid culture, compared to untreated control, 4-5 days after application, read-out: control of Monographella nivalis.
The test system of data set [6] is Magnaporthe grisea (Pyricularia oryzae). Put plainly: whole plant or invertebrate. In kind it is in vivo. The settings on record: foliar, read-out: control of Magnaporthe grisea.
Data set [7] shares this test system. Nature of the data set: microbe, parasite or virus in culture. The format is cell-based. The settings on record: read-out: control of Magnaporthe grisea.
The next data set has as its system Sclerotinia sclerotiorum. Nature of the data set: Sclerotinia sclerotiorum/Liquid Culture (Cottony Rot). To be noted: read-out: control of Sclerotinia sclerotiorum.

By melting point is commonly meant the temperature of the solid-liquid transition.

Description for Sclerotinia sclerotiorum: Mycelia fragments of a newly grown liquid culture of the fungus are directly mixed into nutrient broth (Vogels broth). After placing a (DMSO) solution of test compound into a microtiter plate (96-well format) the nutrient broth containing the fungal material is added. The test plates are incubated at 24° C. and the inhibition of growth is determined photometrically 3-4 days after application.

For the molecule `CC(C)CC(F)(Cc1ccccc1)C(=O)Nc1cnc2c(F)cccc2c1` (stereo not shown) [Compound E-1, 2-benzyl-2-fluoro-N-(8-fluoro-3-quinolyl)-4-methyl-pentanamide], the inhibition of growth at 200 ppm (in [1]; with Fusarium culmorum [2]; in data set [4]; in data set [5]) was ≥ 80% each time. Also, the pest or weed control at 200 ppm (in the data set with Fusarium culmorum [3]; in data set [6]) was ≥ 80% in each case.

As for `C#CCC(C)(Cc1ccccc1)C(=O)Nc1cc2cccc(F)c2nc1C` (stereo not shown) [Compound E-2, 2-benzyl-N-(8-fluoro-2-methyl-3-quinolyl)-2-methyl-pent-4-ynamide], the inhibition of growth at 200 ppm (in data set [1]; in the data set on Fusarium culmorum [2]; in data set [4]) was ≥ 80% in each case. In addition, the pest or weed control at 200 ppm (with Fusarium culmorum [3]; in data set [6]) was ≥ 80% throughout.

With `C=C(Cl)CC(Cc1ccccc1)C(=O)Nc1cnc2c(F)cccc2c1` (stereo not shown) [Compound E-6, 2-benzyl-4-chloro-N-(8-fluoro-3-quinolyl)pent-4-enamide], the melting point lay in the range of 166 to 168 °C. For the same molecule, in [1], the inhibition of growth at 200 ppm is ≥ 80%. Further, the inhibition of growth at 200 ppm with Fusarium culmorum [2] is ≥ 80%. Besides, the inhibition of growth at 200 ppm in [4] is ≥ 80%. Further, the inhibition of growth at 200 ppm in [5] was ≥ 80%. The pest or weed control at 200 ppm in data set [6] is ≥ 80%.

On to `CC(Cc1ccc(F)cc1)(CC(F)(F)F)C(=O)Nc1cnc2c(F)cccc2c1` (stereo not shown) [Compound E-18, 4,4,4-trifluoro-2-[(4-fluorophenyl)methyl]-N-(8-fluoro-3-quinolyl)-2-methyl-butanamide], for which the inhibition of growth at 200 ppm (in data set [1]; in the data set with Fusarium culmorum [2]; in [4]; in data set [5]; in data set [7]) was ≥ 80% throughout. Further, in data set [6], the pest or weed control at 200 ppm is ≥ 80%. The inhibition of growth at 20 ppm with Sclerotinia sclerotiorum was ≥ 80%.

On to `C#CCC(C)(Cc1ccccc1)C(=O)Nc1cnc2c(F)cccc2c1` (stereo not shown) [Compound E-26, 2-benzyl-N-(8-fluoro-3-quinolyl)-2-methyl-pent-4-ynamide], for which the melting point lay in the range of 189 to 191 °C. The inhibition of growth at 200 ppm in [1] was ≥ 80%. Moreover, in the data set on Fusarium culmorum [2], the inhibition of growth at 200 ppm was ≥ 80%. Also, the inhibition of growth at 200 ppm in [4] is ≥ 80%. Besides, the inhibition of growth at 200 ppm in [5] was ≥ 80%. Moreover, in data set [7], the inhibition of growth at 200 ppm was ≥ 80%. In addition, the pest or weed control at 200 ppm in data set [6] is ≥ 80%.

For `CCCCC(C)(Cc1ccccc1)C(=O)Nc1cnc2c(F)cccc2c1` (stereo not shown) [Compound E-27, 2-benzyl-N-(8-fluoro-3-quinolyl)-2-methyl-hexanamide], the melting point fell in the range of 135 to 137 °C. Also, the inhibition of growth at 200 ppm in data set [1] is ≥ 80%. In addition, in the data set with Fusarium culmorum [2], the inhibition of growth at 200 ppm is ≥ 80%. Besides, the inhibition of growth at 200 ppm in data set [5] was ≥ 80%. Also, in [7], the inhibition of growth at 200 ppm is ≥ 80%. The pest or weed control at 200 ppm in data set [6] is ≥ 80%.

The molecule `CC#CCC(Cc1ccccc1)C(=O)Nc1cnc2c(F)cccc2c1` (stereo not shown) [Compound E-29, 2-benzyl-N-(8-fluoro-3-quinolyl)hex-4-ynamide] yielded a melting point of 218 to 220 °C. Moreover, the inhibition of growth at 200 ppm in data set [1] is ≥ 80%. The inhibition of growth at 200 ppm in [7] was ≥ 80%. For the same molecule, the pest or weed control at 200 ppm in data set [6] is ≥ 80%.

In the case of `CC#CCC(C)(Cc1ccccc1)C(=O)Nc1cnc2c(F)cccc2c1` (stereo not shown) [Compound E-30, 2-benzyl-N-(8-fluoro-3-quinolyl)-2-methyl-hex-4-ynamide], the melting point was in the range of 136 to 138 °C. In addition, the inhibition of growth at 200 ppm in [1] was ≥ 80%. The inhibition of growth at 200 ppm with Fusarium culmorum [2] was ≥ 80%. Further, the inhibition of growth at 200 ppm in data set [5] was ≥ 80%. In data set [7], the inhibition of growth at 200 ppm is ≥ 80%. Moreover, in data set [6], the pest or weed control at 200 ppm is ≥ 80%.

For `Cc1nc2c(F)cccc2cc1NC(=O)C(Cc1ccccc1)CC(F)(F)F` (stereo not shown) [Compound E-44, 2-benzyl-4,4,4-trifluoro-N-(8-fluoro-2-methyl-3-quinolyl)butanamide], the inhibition of growth at 200 ppm (in data set [1]; with Fusarium culmorum [2]; in [4]; in data set [7]) was ≥ 80% each time. Also, the pest or weed control at 200 ppm (in the data set with Fusarium culmorum [3]; in [6]) was ≥ 80% each time.

With `C=C(C)CC(CC)(Cc1ccccc1)C(=O)Nc1cnc2c(F)cccc2c1` (stereo not shown) [Compound E-46, 2-benzyl-2-ethyl-N-(8-fluoro-3-quinolyl)-4-methyl-pent-4-enamide], the inhibition of growth at 200 ppm (in data set [1]; in the data set on Fusarium culmorum [2]; in data set [4]; in [5]; in data set [7]) was ≥ 80% in each case. Besides, the pest or weed control at 200 ppm in data set [6] was ≥ 80%.

As for `C=C(C)CC(Cc1ccccc1)C(=O)Nc1cnc2c(F)cccc2c1C` (stereo not shown) [Compound E-93, 2-benzyl-N-(8-fluoro-4-methyl-3-quinolyl)-4-methyl-pent-4-enamide], the melting point lay in the range of 116 to 118 °C. The inhibition of growth at 200 ppm in data set [1] was ≥ 80%. Moreover, the inhibition of growth at 200 ppm with Fusarium culmorum [2] is ≥ 80%. In data set [4], the inhibition of growth at 200 ppm was ≥ 80%. Further, in [5], the inhibition of growth at 200 ppm was ≥ 80%. For the same molecule, the pest or weed control at 200 ppm in data set [6] was ≥ 80%.

As for `Cc1c(NC(=O)[C@@](C)(Cc2ccccc2)CC(C)C)cnc2c(F)cccc12` [Compound F-4, (2R)-2-benzyl-N-(8-fluoro-4-methyl-3-quinolyl)-2,4-dimethyl-pentanamide], the inhibition of growth at 200 ppm (in data set [1]; in the data set on Fusarium culmorum [2]; in [4]) was ≥ 80% throughout. Moreover, the pest or weed control at 200 ppm (in the data set with Fusarium culmorum [3]; in data set [6]) was ≥ 80% each time.

Take `Cc1c(NC(=O)[C@@](C)(Cc2ccccc2)CC(F)(F)F)cnc2c(F)cccc12` [Compound F-14, (2S)-2-benzyl-4,4,4-trifluoro-N-(8-fluoro-4-methyl-3-quinolyl)-2-methyl-butanamide]: the melting point is 74 to 76 °C. Further, the inhibition of growth at 200 ppm in data set [1] was ≥ 80%. The inhibition of growth at 200 ppm in the data set with Fusarium culmorum [2] is ≥ 80%. The pest or weed control at 200 ppm in the data set on Fusarium culmorum [3] was ≥ 80%. In addition, the inhibition of growth at 200 ppm in [4] is ≥ 80%. Moreover, the inhibition of growth at 200 ppm in [5] was ≥ 80%. Besides, in [7], the inhibition of growth at 200 ppm was ≥ 80%. The inhibition of growth at 20 ppm in the data set on Sclerotinia sclerotiorum is ≥ 80%.

Molecule `C=C(C)C[C@@](C)(Cc1ccccc1)C(=O)Nc1cnc2c(F)cccc2c1` [Compound F-21, (2S)-2-benzyl-N-(8-fluoro-3-quinolyl)-2,4-dimethyl-pent-4-enamide] yielded a melting point of 132 to 135 °C. Further, the inhibition of growth at 200 ppm in [1] was ≥ 80%. In addition, the inhibition of growth at 200 ppm in the data set on Fusarium culmorum [2] is ≥ 80%. Moreover, in the data set with Fusarium culmorum [3], the pest or weed control at 200 ppm was ≥ 80%. The inhibition of growth at 200 ppm in data set [4] was ≥ 80%. For the same molecule, the inhibition of growth at 200 ppm in data set [5] was ≥ 80%. Also, in data set [6], the pest or weed control at 200 ppm is ≥ 80%.
